Tests used:
mouse TAAR1 = mouse TAAR1 (Mus musculus (Mouse), UniProt Q923Y8); experiment: Radioligand binding assay on mouse TAAR1; settings: mouse TAAR1 (first value of the cell); membranes of HEK-293 cells stably expressing mouse TAAR1; read-out: Ki (μM) mouse/rat
Procedure: (§1) Construction of TAAR Expression Plasmids and Stably Transfected Cell Lines
(§2) For the construction of expression plasmids the coding sequences of human, rat and mouse TAAR 1 were amplified from genomic DNA essentially as described by Lindemann et al.. The Expand High Fidelity PCR System (Roche Diagnostics) was used with 1.5 mM Mg^2+ and purified PCR products were cloned into pCR2.1-TOPO cloning vector (Invitrogen) following the instructions of the manufacturer. PCR products were subcloned into the pIRESneo2 vector (BD Clontech, Palo Alto, Calif.), and expression vectors were sequence verified before introduction in cell lines.
(§3) HEK293 cells (ATCC # CRL-1573) were cultured essentially as described by Lindemann et al. (2005). For the generation of stably transfected cell lines HEK293 cells were transfected with the pIRESneo2 expression plasmids containing the TAAR coding sequences (described above) with Lipofectamine 2000 (Invitrogen) according to the instructions of the manufacturer, and 24 hrs post transfection the culture medium was supplemented with 1 mg/ml G418 (Sigma, Buchs, Switzerland). After a culture period of about 10 d clones were isolated, expanded and tested for responsiveness to trace amines (all compounds purchased from Sigma) with the cAMP Biotrak Enzyme immunoassay (EIA) System (Amersham) following the non-acetylation EIA procedure provided by the manufacturer.
Radioligand Binding Assay on Mouse TAAR1
(§4) Membrane Preparation and Radioligand Binding.
HEK-293 cells stably expressing mouse TAAR1 were maintained at 37° C. and 5% CO2 in DMEM high glucose medium, containing fetal calf serum (10%, heat inactivated for 30 min at 56° C.), penicillin/streptomycin (1%), and 375 μg/ml geneticin (Gibco). Cells were released from culture flasks using trypsin/EDTA, harvested, washed twice with ice-cold PBS (without Ca^2+and Mg^2+), pelleted at 1,000 rpm for 5 min at 4° C., frozen and stored at −80° C. Frozen pellets were suspended in 20 ml HEPES-NaOH (20 mM, pH 7.4) containing 10 mM EDTA and homogenized with a Polytron (PT 6000, Kinematica) at 14,000 rpm for 20 s. The homogenate was centrifuged at 48,000×g for 30 min at 4° C. Subsequently, the supernatant was removed and discarded, and the pellet resuspended in 20 ml HEPES-NaOH (20 mM, pH 7.4) containing 0.1 mM EDTA using the Polytron (20 s at 14,000 rpm). This procedure was repeated and the final pellet resuspended in HEPES-NaOH containing 0.1 mM EDTA and homogenized using the Polytron. Typically, aliquots of 2 ml membrane portions were stored at −80° C. With each new membrane batch the dissociation constant (Kd) was determined via a saturation curve. The TAAR1 radioligand ^3[H]-(S)-4-[(ethyl-phenyl-amino)-methyl]-4,5-dihydro-oxazol-2-ylamine (described in WO 2008/098857) was used at a concentration equal to the calculated Kd value, that was usually around 0.7 nM, resulting in the binding of approximately 0.5% of the radioligand and a specific binding representing approximately 70% of the total binding. Nonspecific binding was defined as the amount of ^3[H]-(S)-4-[(ethyl-phenyl-amino)-methyl]-4,5-dihydro-oxazol-2-ylamine bound in the presence of 10 μM unlabeled ligand. All compounds were tested at a broad range of concentrations ([…]) in duplicates. The test compounds (20 […]μl/well) were transferred into a 96 deep well plate (TreffLab), and 180 μl of HEPES-NaOH (20 mM, pH 7.4) containing MgCl2 (10 mM) and CaCl2 (2 mM) (binding buffer), 300 μl of the radioligand ^3[H]-(S)-4-[(ethyl-phenyl-amino)-methyl]-4,5-dihydro-oxazol-2-ylamine at a concentration of 3.3×Kd in nM and 500 μl of the membranes (resuspended at […]) added. The 96 deep well plates were incubated for 1 hr at 4° C. Incubations were terminated by rapid filtration through Unifilter-96 plates (Packard Instrument Company) and glass filters GF/C (Perkin Elmer) presoaked for 1 hr in polyethylenimine (0.3%) and washed 3 times with 1 ml of cold binding buffer. […]

rat TAAR1 = rat TAAR1 (Rattus norvegicus (Rat), UniProt Q923Y9); experiment: Radioligand binding assay on rat TAAR1; settings: rat TAAR1 (second value of the cell); membranes of HEK-293 cells stably expressing rat TAAR1; read-out: Ki (μM) mouse/rat
Procedure: as §1, §2, §3
Radioligand Binding Assay on Rat TAAR1
as §4
HEK-293 cells stably expressing rat TAAR1 were maintained at 37° C. and 5% CO2 in DMEM high glucose medium, containing fetal calf serum (10%, heat inactivated for 30 min at 56° C.), penicillin/streptomycin (1%), and 375 μg/ml geneticin (Gibco). Cells were released from culture flasks using trypsin/EDTA, harvested, washed twice with ice-cold PBS (without Ca^2+ and Mg^2+), pelleted at 1,000 rpm for 5 min at 4° C., frozen and stored at −80° C. Frozen pellets were suspended in 20 ml HEPES-NaOH (20 mM, pH 7.4) containing 10 mM EDTA and homogenized with a Polytron (PT 6000, Kinematica) at 14,000 rpm for 20 s. The homogenate was centrifuged at 48,000×g for 30 min at 4° C. Subsequently, the supernatant was removed and discarded, and the pellet resuspended in 20 ml HEPES-NaOH (20 mM, pH 7.4) containing 0.1 mM EDTA using the Polytron (20 s at 14,000 rpm). This procedure was repeated and the final pellet resuspended in HEPES-NaOH containing 0.1 mM EDTA and homogenized using the Polytron. Typically, aliquots of 2 ml membrane portions were stored at −80° C. With each new membrane batch the dissociation constant (Kd) was determined via a saturation curve. […] Nonspecific binding was defined as the amount of ^3[H]-(S)-4-[(ethyl-phenyl-amino)-methyl]-4,5-dihydro-oxazol-2-ylamine bound in the presence of 10 μM unlabeled ligand. All compounds were tested at a broad range of concentrations ([…]) in duplicates. The test compounds (20 […]μl/well) were transferred into a 96 deep well plate (TreffLab), and 180 μl of HEPES-NaOH (20 mM, pH 7.4) containing MgCl2 (10 mM) and CaCl2 (2 mM) (binding buffer), 300 μl of the radioligand ^3[H]-(S)-4-[(ethyl-phenyl-amino)-methyl]-4,5-dihydro-oxazol-2-ylamine at a concentration of 3.3×Kd in nM and 500 μl of the membranes (resuspended at 50 μg protein per ml) added. The 96 deep well plates were incubated for 1 hr at 4° C. Incubations were terminated by rapid filtration through Unifilter-96 plates (Packard Instrument Company) and glass filters GF/C (Perkin Elmer) presoaked for 1 hr in polyethylenimine (0.3%) and washed 3 times with 1 ml of cold binding buffer. After addition of 45 μl of Microscint 40 (PerkinElmer) the Unifilter-96 plate was sealed and after 1 hr the ratioactivity counted using a TopCount Microplate Scintillation Counter (Packard Instrument Company).

mouse TAAR1, sequence (Q923Y8 whole entry): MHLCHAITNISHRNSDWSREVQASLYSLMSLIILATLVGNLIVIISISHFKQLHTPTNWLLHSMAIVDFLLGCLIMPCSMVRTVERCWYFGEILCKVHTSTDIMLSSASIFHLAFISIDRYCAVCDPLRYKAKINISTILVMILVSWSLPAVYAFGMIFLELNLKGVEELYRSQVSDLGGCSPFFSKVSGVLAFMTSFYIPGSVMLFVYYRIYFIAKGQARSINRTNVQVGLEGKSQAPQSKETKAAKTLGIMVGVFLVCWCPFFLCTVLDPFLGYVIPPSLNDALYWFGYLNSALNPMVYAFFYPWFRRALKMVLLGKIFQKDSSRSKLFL
rat TAAR1, sequence (Q923Y9 whole entry): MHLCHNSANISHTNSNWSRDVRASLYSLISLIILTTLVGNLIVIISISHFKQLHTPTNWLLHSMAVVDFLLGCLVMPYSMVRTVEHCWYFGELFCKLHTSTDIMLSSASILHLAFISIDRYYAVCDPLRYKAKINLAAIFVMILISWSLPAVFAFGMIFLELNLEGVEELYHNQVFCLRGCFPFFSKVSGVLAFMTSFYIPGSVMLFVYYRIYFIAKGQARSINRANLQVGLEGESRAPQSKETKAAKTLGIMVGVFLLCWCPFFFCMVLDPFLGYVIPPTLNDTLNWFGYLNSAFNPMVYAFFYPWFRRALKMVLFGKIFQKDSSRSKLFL

Row | SMILES | Ki (mouse TAAR1) [µM] | Ki (rat TAAR1) [µM]
1 | O=C(Nc1ccc(C[C@@]23CN[C@@H](CO2)C3)cc1)c1cnc(C2CC2)nc1 [Example 51, 2-Cyclopropyl-N-[4-[[(1R,4R)-5-oxa-2-azabicyclo[2.2.1]heptan-4-yl]methyl]phenyl]pyrimidine-5-carboxamide] | 0.0774 | 0.324
2 | O=C(Nc1ccc(C[C@@]23CN[C@@H](CO2)C3)cc1)c1ccc(OCC2CC2)cc1 [Example 45, 4-(Cyclopropylmethoxy)-N-[4-[[(1R,4R)-5-oxa-2-azabicyclo[2.2.1]heptan-4-yl]methyl]phenyl]benzamide] | 0.0061 | 0.0212
3 | CCOc1ccc(C(=O)Nc2ccc(C34CCC(CO3)NC4)cc2)cc1 (centres unmarked) [Example 53, 4-Ethoxy-N-[4-(5-oxa-2-azabicyclo[2.2.2]octan-4-yl)phenyl]benzamide] | 0.0156 | 1.98
4 | O=C(Nc1ccc(C[C@@]23CN[C@@H](CO2)C3)cc1)c1ccc(Cl)cc1 [Example 21, 4-Chloro-N-[4-[[(1R,4R)-5-oxa-2-azabicyclo[2.2.1]heptan-4-yl]methyl]phenyl]benzamide] | 0.003 | 0.0626
5 | CC(C)c1cc(C(=O)Nc2ccc(C[C@]34CN[C@H](CO3)C4)cc2)[nH]n1 [Example 38, 3-Isopropyl-N-[4-[[(1S,4S)-5-oxa-2-azabicyclo[2.2.1]heptan-4-yl]methyl]phenyl]-1H-pyrazole-5-carboxamide] | 10.1 | 0.441
6 | FC(F)(F)c1ccc(Nc2ccc([C@]34CN[C@H](CO3)C4)cc2)nc1 [Example 61, N-[4-[(1 S,4R)-5-Oxa-2-azabicyclo[2.2.1]heptan-4-yl]phenyl]-5-(trifluoromethyl)pyridin-2-amine] | 0.0146 | 0.0293
7 | Clc1ccc(Nc2ccc(C[C@]34CN[C@H](CO3)C4)cc2)nc1 [Example 30, 5-Chloro-N-[4-[[(1S,4S)-5-oxa-2-azabicyclo[2.2.1]heptan-4-yl]methyl]phenyl]pyridin-2-amine] | 2.55 | 0.621
8 | CCCc1n[nH]c(C(=O)Nc2ccc(C[C@@]34CN[C@@H](CO3)C4)cc2)c1Cl [Example 41, 4-Chloro-N-[4-[[(1R,4R)-5-oxa-2-azabicyclo[2.2.1]heptan-4-yl]methyl]phenyl]-3-propyl-1H-pyrazole-5-carboxamide] | 0.0183 | 0.066
9 | O=C(Nc1ccc(C[C@]23CN[C@H](CO2)C3)cc1)c1ccnc(C(F)(F)F)c1 [Example 18, N-[4-[[(1S,4S)-5-Oxa-2-azabicyclo[2.2.1]heptan-4-yl]methyl]phenyl]-2-(trifluoromethyl)pyridine-4-carboxamide] | 0.238 | 0.354
10 | Clc1ccc(Nc2ccc([C@@]34CN[C@@H](CO3)C4)cc2)nc1 [Example 20, 5-Chloro-N-[4-[(1R,4S)-5-oxa-2-azabicyclo[2.2.1]heptan-4-yl]phenyl]pyridin-2-amine] | 0.0062 | 1.78
11 | Clc1ccc(Nc2ccc(C[C@@]34CN[C@@H](CO3)C4)cc2)nc1 [Example 42, 5-Chloro-N-[4-[[(1R,4R)-5-oxa-2-azabicyclo[2.2.1]heptan-4-yl]methyl]phenyl]pyridin-2-amine] | 0.0158 | 0.355
12 | Clc1ccc(Nc2ccc([C@]34CN[C@H](CO3)C4)cc2)nc1 [Example 7, 5-Chloro-N-[4-[(1S,4R)-5-oxa-2-azabicyclo[2.2.1]heptan-4-yl]phenyl]pyridin-2-amine] | 0.0414 | 0.309

More lines, in order of falling Ki (mouse TAAR1), values ahead:

Row | Ki (mouse TAAR1) [µM] | Ki (rat TAAR1) [µM] | SMILES
13 | 0.846 | 0.0442 | O=C(Nc1ccc(C[C@]23CN[C@H](CO2)C3)cc1)Nc1ccc(C(F)(F)F)cc1 [Example 8, 1-[4-[[(1S,4S)-5-Oxa-2-azabicyclo[2.2.1]heptan-4-yl]methyl]phenyl]-3-[4-(trifluoromethyl)phenyl]urea]
14 | 0.476 | 0.633 | O=C(Nc1ccc(C[C@]23CN[C@H](CO2)C3)cc1)c1[nH]nc(C2CC2)c1Cl [Example 29, 4-Chloro-3-cyclopropyl-N-[4-[[(1 S,4S)-5-oxa-2-azabicyclo[2.2.1]heptan-4-yl]methyl]phenyl]-1H-pyrazole-5-carboxamide]
15 | 0.168 | 0.0175 | O=C(Nc1ccc(C[C@]23CN[C@H](CO2)C3)cc1)c1ccc(OCC2CC2)cc1 [Example 25, 4-(Cyclopropylmethoxy)-N-[4-[[(1S,4S)-5-oxa-2-azabicyclo[2.2.1]heptan-4-yl]methyl]phenyl]benzamide]
16 | 0.0853 | 0.0505 | O=C(Nc1ccc(C[C@]23CN[C@H](CO2)C3)cc1)c1ccc(Cl)cc1 [Example 15, 4-Chloro-N-[4-[[(1S,4S)-5-oxa-2-azabicyclo[2.2.1]heptan-4-yl]methyl]phenyl]benzamide]
17 | 0.0552 | 0.013 | O=C(Nc1ccc(C[C@]23CN[C@H](CO2)C3)cc1)c1ccc(OCC(F)(F)F)nc1 [Example 27, N-[4-[[(1 S,4S)-5-Oxa-2-azabicyclo[2.2.1]heptan-4-yl]methyl]phenyl]-6-(2,2,2-trifluoroethoxy)pyridine-3-carboxamide]
18 | 0.0107 | 0.141 | FC(F)(F)c1ccc(Nc2ccc(C[C@@]34CN[C@@H](CO3)C4)cc2)nc1 [Example 63, N-[4-[[(1R,4R)-5-Oxa-2-azabicyclo[2.2.1]heptan-4-yl]methyl]phenyl]-5-(trifluoromethyl)pyridin-2-amine]
19 | 0.0044 | 0.797 | O=C(Nc1ccc(C23CCC(CO2)NC3)cc1)c1cccc(Cl)c1 (centres unmarked) [Example 6, 3-Chloro-N-[4-(5-oxa-2-azabicyclo[2.2.2]octan-4-yl)phenyl]benzamide]

Reference: patent US9663530B2, “5-oxa-2-azabicyclo[2.2.2]OCTAN-4-yl and 5-oxa-2-azabicyclo[2.2.1]heptan-4-yl derivatives” (Hoffmann-La Roche Inc., priority 2014, dated 2017)
